Results from US7015237B2, “Pyridine matrix metalloproteinase inhibitors” (Warner-Lambert Company, priority 2001, dated 2006).

Columns and labels:
[1] = target: MMP-13 (catalytic domain of collagenase 3) (Homo sapiens, UniProt P45452); assay: Thiopeptolide substrate hydrolysis assay, MMP-13; format: biochemical; settings: catalytic domain of collagenase 3; Table 1; read-out: MMP-13 IC50
Source text: (§1) The assays used to evaluate the biological activity of the invention compounds are well known and routinely used by those skilled in the study of MMP inhibitors and their use to treat clinical conditions.
(§2) The assays measure the amount by which a test compound reduces the hydrolysis of a thiopeptolide substrate catalyzed by a matrix metalloproteinase enzyme. Such assays are described in detail by Ye et al., in Biochemistry, 1992; 31(45):11231–11235, which is incorporated herein by reference.
Thiopeptolide substrates show virtually no decomposition or hydrolysis at or below neutral pH in the absence of a matrix metalloproteinase enzyme. A typical thiopeptolide substrate commonly utilized for assays is Ac-Pro-Leu-Gly-thioester-Leu-Leu-Gly-OEt. A 100-μL assay mixture will contain 50 mM of N-2-hydroxyethylpiperazine-N′-2-ethanesulfonic acid buffer (“HEPES”) at pH 7.0, 10 mM CaCl2, 100 μM thiopeptolide substrate, and 1 mM 5,5′-dithio-bis-(2-nitro-benzoic acid) (DTNB). The thiopeptolide substrate concentration may be varied from, for example, 10 to 800 μM to obtain Km and Kcat values. The change in absorbance at 405 nm is monitored on a Thermo Max microplate reader (Molecular Devices, Menlo Park, Calif.) at room temperature (22° C.). The calculation of the amount of hydrolysis of the thiopeptolide substrate is based on E412=13600 M^−1 cm^−1 for the DTNB-derived product 3-carboxy-4-nitrothiophenoxide. Assays are carried out with and without matrix metalloproteinase inhibitor compounds, and the amount of hydrolysis is compared for a determination of inhibitory activity of the test compounds.
In the tables, MMP-1 refers to full-length interstitial collagenase; MMP-3 refers to the catalytic domain of stromelysin-1; MMP-13 refers to the catalytic domain of collagenase 3. Test compounds were evaluated at various concentrations to determine their respective IC50 values.

[2] = target: T1, MMP-1 (full-length interstitial collagenase) (Homo sapiens, UniProt P03956); assay: Thiopeptolide substrate hydrolysis assay, MMP-1; format: biochemical; settings: pH 7.0, 22° C.
T1 sequence (P03956 100-469): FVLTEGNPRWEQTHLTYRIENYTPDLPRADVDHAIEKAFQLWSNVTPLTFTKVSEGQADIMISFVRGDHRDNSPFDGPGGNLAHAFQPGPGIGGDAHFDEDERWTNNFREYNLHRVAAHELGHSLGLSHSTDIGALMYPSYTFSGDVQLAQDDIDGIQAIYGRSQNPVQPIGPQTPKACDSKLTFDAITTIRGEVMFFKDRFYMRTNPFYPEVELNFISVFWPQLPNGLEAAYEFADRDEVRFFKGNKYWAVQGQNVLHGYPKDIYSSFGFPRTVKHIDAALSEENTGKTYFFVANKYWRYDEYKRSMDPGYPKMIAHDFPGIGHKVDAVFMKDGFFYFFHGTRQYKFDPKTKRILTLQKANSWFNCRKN
Source text: as §1, with “The invention compounds of Formula I have been evaluated in standard assays for their ability to inhibit the catalytic activity of various MMP enzymes. The” for “The”
as §2
Thiopeptolide substrates show virtually no decomposition or hydrolysis at or below neutral pH in the absence of a matrix metalloproteinase enzyme. A typical thiopeptolide substrate commonly utilized for assays is Ac-Pro-Leu-Gly-thioester-Leu-Leu-Gly-OEt. […] The change in absorbance at 405 nm is monitored on a Thermo Max microplate reader (Molecular Devices, Menlo Park, Calif.) at room temperature (22° C.). […]
Representative compounds have been evaluated for their ability to inhibit various matrix metalloproteinase enzymes. […] Test compounds were evaluated at various concentrations to determine their respective IC50 values.

Row | IC50 [1] [µM] | melting point [°C] | IC50 [2] [µM] | SMILES
1 | 30 | 185 to 186 |  | O=C(NCc1cccc(Cl)c1)c1cncc(C(=O)NCc2cccc(Cl)c2)c1 [Example 3, Pyridine-3,5-dicarboxylic acid bis-(3-chloro-benzylamide)]
2 | 8.7 | 224 to 225 |  | COc1ccc(CNC(=O)c2cncc(C(=O)NCc3ccc(OC)cc3)c2)cc1 [Example 6, Pyridine-3,5-dicarboxylic acid bis-(4-methoxy-benzylamide)]
3 | 2.3 | 194 to 195 | 30 | O=C(NCc1ccc2c(c1)OCO2)c1cncc(C(=O)NCc2ccc3c(c2)OCO3)c1 [Example 7, Pyridine-3,5-dicarboxylic acid bis-[(1,3-benzodioxol-5-ylmethyl)-amide]]
4 |  | 216 to 218 |  | O=C(NCc1ccc(F)cc1)c1cncc(C(=O)NCc2ccc(F)cc2)c1 [Example 9, Pyridine-3,5-dicarboxylic acid bis-(4-fluoro-benzylamide)]
